Drawing on ChEMBL document CHEMBL1136024, “CCR3 antagonists: a potential new therapy for the treatment of asthma. Discovery and structure-activity relationships” (Bioorg Med Chem Lett, 2002), this text covers IC50 for 61 molecules.

Broadly, the IC50 is the concentration that gives 50% inhibition. Lower therefore signals greater potency in that assay.

The experiment concerns the target T1, C-C chemokine receptor type 3 (Homo sapiens, UniProt P51677).
T1 sequence (P51677 whole entry): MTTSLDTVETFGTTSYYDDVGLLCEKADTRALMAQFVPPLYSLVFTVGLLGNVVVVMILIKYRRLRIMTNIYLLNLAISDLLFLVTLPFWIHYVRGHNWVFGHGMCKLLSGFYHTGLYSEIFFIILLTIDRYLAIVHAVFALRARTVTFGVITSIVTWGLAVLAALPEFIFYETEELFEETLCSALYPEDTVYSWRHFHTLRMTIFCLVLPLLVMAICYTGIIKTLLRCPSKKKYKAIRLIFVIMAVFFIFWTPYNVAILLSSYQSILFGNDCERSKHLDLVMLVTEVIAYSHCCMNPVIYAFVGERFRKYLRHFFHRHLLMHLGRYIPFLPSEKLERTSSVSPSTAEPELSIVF
Description: In vitro inhibition if C-C chemokine receptor type 3 (CCR3) using 150p M [125I]-labeled human eotaxin.
In the case of `COc1cccc(NC(=O)N2CCC(CN3CCC(Cc4ccc(F)cc4)CC3)C2)c1` (racemic), the IC50 worked out at 240 nM. Under `CC(=O)c1cccc(NC(=O)NCCCN2CC[C@H](Cc3ccccc3)C[C@@H]2[C@H](C)O)c1` stands 20 nM; under `O=C(NCCCN1CCC(Cc2ccc(F)cc2)CC1)NCCc1ccccc1`, 300 nM; under `O=S(=O)(NCCCCN1CC[C@@H]2[C@H](C1)c1cccc3c1N2CC3)c1ccc(F)cc1`, 6400 nM. Under `CS(=O)(=O)c1cccc(NC(=O)NCCCN2CCC(Cc3ccc(F)cc3)CC2)c1` stands 20 nM; under `CN(C)c1ccc(NC(=O)NCCCN2CCC(Cc3ccccc3)CC2)cc1`, 1600 nM.

`COc1cccc(NC(=O)N2CCCC(CN3CCC(Cc4ccccc4)CC3)C2)c1` (racemic) came in with an IC50 of 330 nM.

For `O=C(NCCCN1CCC(Cc2ccc(F)cc2)CC1)Nc1ccccc1[N+](=O)[O-]`, inhibition was half-maximal at 89 nM (IC50). This IC50 lies about 3.7-fold lower than the previous one. In the case of `COc1cccc(NC(=O)N2CCCC(CCN3CCC(Cc4ccc(F)cc4)CC3)C2)c1` (racemic), the IC50 amounted to 250 nM. As for `COc1cccc(C(=O)NCCCCN2CCC(Cc3ccccc3)CC2)c1`, the figure is 1200 nM; as for `O=C(NCCCCN1CCC(Cc2ccccc2)CC1)c1ccc(F)cc1`, 1000 nM.

Molecule `COc1cccc(NC(=O)NCCCN2CCC(Cc3ccc(F)cc3)CC2)c1` had an IC50 of 30 nM.

Take `N#Cc1cccc(NC(=O)NCCCCCN2CCC(Cc3ccccc3)CC2)c1`: the midpoint of inhibition, the IC50, lay at 1200 nM.

The molecule `O=C(NCCN1CC[C@@H]2[C@H](C1)c1cccc3c1N2CC3)c1ccc(F)cc1` had an IC50 of 8300 nM. On to `COc1cccc(NC(=O)N2CCO[C@@H](CN3CCC(Cc4ccc(F)cc4)CC3)C2)c1`, for which the IC50 is 260 nM.

Turning to `COc1cccc(NC(=O)N2CCC(N3CCC(Cc4ccccc4)CC3)CC2)c1`, the midpoint of inhibition, the IC50, lay at 2300 nM.

Molecule `N#Cc1cccc(NC(=O)NCCCCN2CCC(Cc3ccccc3)CC2)c1` came in with an IC50 of 500 nM. For `Cn1nnnc1-c1cccc(NC(=O)NCCCN2CCC(Cc3ccc(F)cc3)CC2)c1`, it took 5 nM to reach half-maximal inhibition (IC50).

`O=C(NCCCCN1CCC(Cc2ccccc2)CC1)c1ccccc1` showed an IC50 of 800 nM. Under `O=C(NCCCN1CCC(Cc2ccc(F)cc2)CC1)NC1CCCCC1` stands 100 nM; under `O=C(NCCCN1CC[C@@H]2[C@H](C1)c1cccc3c1N2CC3)Nc1ccc(C(F)(F)F)cc1`, 3700 nM. Take `CC(=O)c1cccc(NC(=O)NCCCN2CC[C@H](Cc3ccccc3)C[C@@H]2[C@H](O)C(C)C)c1`: the IC50 was found to be 100 nM.

Consider `CS(=O)(=O)c1ccc(NC(=O)NCCCN2CCC(Cc3ccc(F)cc3)CC2)cc1`, for which the IC50 amounted to 70 nM. The IC50 values of the last two molecules are within 1.5-fold of each other. `CC[C@H](O)[C@H]1C[C@@H](Cc2ccccc2)CCN1CCCNC(=O)Nc1cccc(C(C)=O)c1` (stereo in doubt) displayed an IC50 of 8 nM. With `COc1cccc(NC(=O)N2CCCC(N3CCC(Cc4ccc(F)cc4)CC3)C2)c1` (racemic), half-maximal inhibition (IC50) was put at 530 nM. Compared with the last molecule, the IC50 is about 66-fold higher.

Molecule `COc1cccc(NC(=O)N2CCC(CN3CCC(Cc4ccccc4)CC3)CC2)c1` displayed an IC50 of 1600 nM. `COc1cccc(NC(=O)N2CCO[C@H](CN3CCC(Cc4ccc(F)cc4)CC3)C2)c1` came in with an IC50 of 30 nM. As for `Cc1ccc(CC2CCN(CCCNC(=O)Nc3cccc(C#N)c3)CC2)cc1`, the IC50 came out at 500 nM.

For the molecule `COc1ccccc1C(=O)NCCCCN1CC[C@@H]2[C@H](C1)c1cccc3c1N2CC3`, half-maximal inhibition (IC50) was put at 6800 nM. As to `CCCC[C@H](O)[C@H]1C[C@@H](Cc2ccccc2)CCN1CCCNC(=O)Nc1cccc(C(C)=O)c1` (stereo in doubt; form 2), 80 nM corresponded to half-maximal inhibition (IC50).

`N#Cc1cccc(NC(=O)NCCCN2CCC(Cc3ccccc3F)CC2)c1`: the IC50 worked out at 200 nM.

`O=C(NCCCN1CCC(Cc2ccc(F)cc2)CC1)Nc1ccc([N+](=O)[O-])cc1` returned an IC50 of 7 nM. As to `CCC[C@H](O)[C@H]1C[C@@H](Cc2ccccc2)CCN1CCCNC(=O)Nc1cccc(C(C)=O)c1`, half-maximal inhibition (IC50) required 7 nM. Under `CC(=O)c1cccc(NC(=O)NCCCN2CCC(Cc3ccc(F)cc3)CC2)c1` stands 10 nM; under `CC(=O)c1cccc(NC(=O)NCCCN2CC[C@H](Cc3ccccc3)C[C@@H]2[C@@H](O)CC(C)C)c1`, 20 nM. As for `O=C(NCCCN1CC[C@@H]2[C@H](C1)c1cccc3c1N2CC3)c1ccc(F)cc1`, the figure is 5500 nM; as for `O=C(CCCN1CC[C@@H]2[C@H](C1)c1cccc3c1N2CC3)c1ccc(F)cc1`, 1100 nM. Under `O=C(NCCCN1CCC(Cc2ccc(F)cc2)CC1)Nc1cccc(-c2cccs2)c1` stands 200 nM; under `N#Cc1cccc(NC(=O)NCCCN2CC[C@@H]3[C@H](C2)c2cccc4c2N3CC4)c1`, 700 nM; under `CCCC[C@H](O)[C@H]1C[C@@H](Cc2ccccc2)CCN1CCCNC(=O)Nc1cccc(-c2nnnn2C)c1`, 1 nM.

Regarding `N#Cc1cccc(NC(=O)NCCCN2CCC(Cc3ccc(Cl)cc3)CC2)c1`, the IC50 was 20 nM. Against the preceding molecule, the IC50 is about 20-fold higher. `COc1ccc(C(=O)NCCCCN2CC[C@@H]3[C@H](C2)c2cccc4c2N3CC4)cc1`: half-maximal inhibition (IC50) required 5100 nM.

`CSc1ccc(NC(=O)NCCCN2CCC(Cc3ccc(F)cc3)CC2)cc1` had an IC50 of 40 nM. This IC50 lies about 130-fold lower than the previous one. Molecule `CC(=O)c1cccc(NC(=O)NCCCN2CC[C@H](Cc3ccccc3)C[C@@H]2[C@H](O)CC(C)C)c1` displayed an IC50 of 60 nM. In turn, `O=S(=O)(NCCCN1CC[C@@H]2[C@H](C1)c1cccc3c1N2CC3)c1ccc(F)cc1` gave an IC50 of 10100 nM. For `O=C(NCCCN1CCC(Cc2ccc(F)cc2)CC1)NCc1ccccc1`, it took 400 nM to reach half-maximal inhibition (IC50). With `N#Cc1ccc(C(=O)NCCCCN2CCC(Cc3ccccc3)CC2)cc1`, inhibition was half-maximal at 1300 nM (IC50). As for `O=C(NCCCCN1CC[C@@H]2[C@H](C1)c1cccc3c1N2CC3)c1ccc(F)cc1`, the figure is 3900 nM. Take `COc1cccc(NC(=O)NCCCN2CCC(Cc3ccccc3)CC2)c1`: inhibition was half-maximal at 300 nM (IC50). Under `CC(=O)c1cccc(NC(=O)NCCCN2CC[C@H](Cc3ccccc3)C[C@@H]2[C@@H](O)C(C)C)c1` stands 50 nM; under `CC(=O)c1cccc(NC(=O)NCCCN2CC[C@H](Cc3ccccc3)C[C@@H]2C(C)(O)O)c1`, 50 nM. Under `O=C(NCCCN1CCC(Cc2ccc(F)cc2)CC1)Nc1cccc([N+](=O)[O-])c1` stands 9 nM; under `CCCC[C@H](O)[C@H]1C[C@@H](Cc2ccccc2)CCN1CCCNC(=O)Nc1cccc(C(C)=O)c1` (stereo in doubt; form 1), 1 nM.

`COc1cccc(NC(=O)N2CCCCC2CN2CCC(Cc3ccc(F)cc3)CC2)c1` (racemic): the midpoint of inhibition, the IC50, lay at 170 nM. On to `COc1cccc(C(=O)NCCCCN2CC[C@@H]3[C@H](C2)c2cccc4c2N3CC4)c1`, for which the IC50 was found to be 8100 nM. The molecule `O=C(NCCCN1CCC(Cc2ccccc2)CC1)Nc1ccc(C(F)(F)F)cc1` registered an IC50 of 1200 nM. Under `O=C(NCCCN1CC[C@@H]2[C@H](C1)c1cccc3c1N2CC3)Nc1cccc(I)c1` stands 1100 nM; under `N#Cc1cccc(NC(=O)NCCCN2CCC(Cc3ccc(F)cc3)CC2)c1`, 20 nM. Under `O=C(NCCCN1CCC(Cc2ccc(F)cc2)CC1)Nc1ccccc1` stands 30 nM; under `C[S+]([O-])c1ccc(NC(=O)NCCCN2CCC(Cc3ccc(F)cc3)CC2)cc1` (stereo unspecified), 200 nM. Take `N#Cc1ccc(NC(=O)NCCCN2CCC(Cc3ccc(F)cc3)CC2)cc1`: half-maximal inhibition (IC50) was put at 20 nM. Compared with the last molecule, the IC50 is about 10-fold lower.
